± gives the expanded uncertainty stated by the source.
Conditions: for Normal melting temperature: Crystal, DTA; for Glass transition temperature: DSC

Row | SMILES | Normal melting temperature | Glass transition temperature
1 | CCCCCCCCCC[N+](C)(CCO)CCO.[Br-] [N,N-bis(2-hydroxyethyl)-N-methyldecan-1-aminium bromide] | 47 ± 6 °C | –
2 | CCCCCC[N+](C)(CCO)CCO.[Br-] [N,N-bis(2-hydroxyethyl)-N-methylhexan-1-aminium bromide] | – | -47 ± 6 °C
3 | CCCC[N+](C)(CCO)CCO.[Br-] [N,N-bis(2-hydroxyethyl)-N-methylbutan-1-aminium bromide] | – | -49 ± 6 °C
4 | CCCCCCCC[N+](C)(CCO)CCO.[Br-] [N,N-bis(2-hydroxyethyl)-N-methyloctan-1-aminium bromide] | 27 ± 6 °C | –
5 | CCCC[N+](CCO)(CCO)CCCC.[Br-] [N-butyl-N,N-bis(2-hydroxyethyl)butan-1-aminium bromide] | – | -50 ± 6 °C
